Measured values taken from ChEMBL document CHEMBL2424545, “Structure-efficiency relationship of [1,2,4]triazol-3-ylamines as novel nicotinamide isosteres that inhibit tankyrases” (J Med Chem, 2013).
Converted amounts (≈) assume the structure as drawn.

Key:
[1] = biological target: T1, Poly [ADP-ribose] polymerase tankyrase-2 (Homo sapiens, UniProt Q9H2K2); test: Inhibition of N-terminal GST-tagged TNKS2 (unknown origin) expressed in baculovirus infected sf21 cells after 60 mins by LC-MS analysis
T1 sequence (Q9H2K2 whole entry): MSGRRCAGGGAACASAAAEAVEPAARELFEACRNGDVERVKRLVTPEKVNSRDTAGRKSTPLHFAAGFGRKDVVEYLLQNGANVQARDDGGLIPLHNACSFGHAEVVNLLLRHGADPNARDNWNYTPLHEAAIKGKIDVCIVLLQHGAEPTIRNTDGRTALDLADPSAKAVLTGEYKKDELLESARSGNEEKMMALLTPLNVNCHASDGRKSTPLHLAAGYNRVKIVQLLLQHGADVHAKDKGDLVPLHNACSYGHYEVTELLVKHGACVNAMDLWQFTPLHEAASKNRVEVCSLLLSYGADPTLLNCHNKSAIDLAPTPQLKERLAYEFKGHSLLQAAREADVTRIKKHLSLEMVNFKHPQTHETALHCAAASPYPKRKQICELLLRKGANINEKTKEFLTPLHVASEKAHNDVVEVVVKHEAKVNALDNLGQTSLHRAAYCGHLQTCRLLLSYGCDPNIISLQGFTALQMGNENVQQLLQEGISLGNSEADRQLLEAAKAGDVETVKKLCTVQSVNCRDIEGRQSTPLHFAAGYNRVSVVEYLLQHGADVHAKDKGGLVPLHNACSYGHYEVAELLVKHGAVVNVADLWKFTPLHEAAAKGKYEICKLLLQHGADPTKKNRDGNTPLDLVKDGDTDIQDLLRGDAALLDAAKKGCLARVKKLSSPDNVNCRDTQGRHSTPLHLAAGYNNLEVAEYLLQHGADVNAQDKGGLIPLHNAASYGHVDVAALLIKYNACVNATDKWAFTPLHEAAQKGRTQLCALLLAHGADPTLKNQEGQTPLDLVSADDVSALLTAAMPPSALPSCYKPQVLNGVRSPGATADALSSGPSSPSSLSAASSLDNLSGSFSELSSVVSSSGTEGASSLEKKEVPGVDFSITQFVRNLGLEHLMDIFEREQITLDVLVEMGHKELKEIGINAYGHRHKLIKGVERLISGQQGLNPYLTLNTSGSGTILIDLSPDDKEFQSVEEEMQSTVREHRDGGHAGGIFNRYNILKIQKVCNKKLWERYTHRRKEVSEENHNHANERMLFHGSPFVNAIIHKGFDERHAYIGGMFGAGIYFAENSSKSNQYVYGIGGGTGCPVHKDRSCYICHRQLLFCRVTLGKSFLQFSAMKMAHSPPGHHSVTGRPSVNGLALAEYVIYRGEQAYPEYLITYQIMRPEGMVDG

[2] = Inhibition of Wnt signaling in human HEK293 cells by STF luciferase reporter gene assay
[3] = biological target: T2, Poly [ADP-ribose] polymerase tankyrase-1 (Homo sapiens, UniProt O95271); test: Inhibition of N-terminal GST-tagged human TNKS1 expressed in baculovirus infected sf21 cells after 60 mins by LC-MS analysis
T2 sequence (O95271 whole entry): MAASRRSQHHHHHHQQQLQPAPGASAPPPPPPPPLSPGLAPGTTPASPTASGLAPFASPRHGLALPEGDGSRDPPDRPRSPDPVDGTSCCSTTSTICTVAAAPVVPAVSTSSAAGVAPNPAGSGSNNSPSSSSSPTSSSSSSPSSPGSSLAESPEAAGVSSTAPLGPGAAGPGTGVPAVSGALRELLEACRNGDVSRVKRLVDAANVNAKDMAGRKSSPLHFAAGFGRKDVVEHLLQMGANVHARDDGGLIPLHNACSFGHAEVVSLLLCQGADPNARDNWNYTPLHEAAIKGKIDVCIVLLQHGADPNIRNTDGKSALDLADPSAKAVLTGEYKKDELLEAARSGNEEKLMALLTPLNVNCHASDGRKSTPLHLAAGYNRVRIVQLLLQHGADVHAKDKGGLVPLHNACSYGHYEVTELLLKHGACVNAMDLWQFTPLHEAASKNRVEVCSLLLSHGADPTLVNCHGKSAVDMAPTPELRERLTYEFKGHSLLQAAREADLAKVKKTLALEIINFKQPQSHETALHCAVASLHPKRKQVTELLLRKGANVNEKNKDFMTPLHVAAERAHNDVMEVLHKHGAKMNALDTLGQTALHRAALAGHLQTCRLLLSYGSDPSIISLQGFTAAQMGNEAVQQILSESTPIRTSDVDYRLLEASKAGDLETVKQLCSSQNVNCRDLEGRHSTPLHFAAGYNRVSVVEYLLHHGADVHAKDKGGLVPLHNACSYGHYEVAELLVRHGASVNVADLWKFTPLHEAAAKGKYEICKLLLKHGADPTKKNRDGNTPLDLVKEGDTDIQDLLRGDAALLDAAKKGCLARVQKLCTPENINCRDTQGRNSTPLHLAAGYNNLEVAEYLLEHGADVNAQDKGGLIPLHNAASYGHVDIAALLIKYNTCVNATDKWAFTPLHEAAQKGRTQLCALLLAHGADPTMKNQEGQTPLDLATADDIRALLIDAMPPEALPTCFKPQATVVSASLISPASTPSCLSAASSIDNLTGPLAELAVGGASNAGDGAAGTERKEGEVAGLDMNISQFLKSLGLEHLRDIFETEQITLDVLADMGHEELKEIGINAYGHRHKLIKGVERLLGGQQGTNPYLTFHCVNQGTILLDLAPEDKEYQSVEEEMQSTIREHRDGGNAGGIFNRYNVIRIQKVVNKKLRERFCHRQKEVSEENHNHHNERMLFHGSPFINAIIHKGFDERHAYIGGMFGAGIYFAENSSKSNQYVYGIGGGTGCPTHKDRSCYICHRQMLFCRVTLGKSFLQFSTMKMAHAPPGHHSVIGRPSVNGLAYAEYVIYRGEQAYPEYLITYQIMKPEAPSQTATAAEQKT

[4] = Inhibition of TNKS in human SW480 cells assessed as stabilization of axin2 after 24 hrs by ELISA; type: cell-based
[5] = Hepatic extraction ratio in mouse liver microsomes; type: ADME, Microsome; settings: read-out: ERH
[6] = Hepatic extraction ratio in human liver microsomes; type: ADME, Microsome; settings: read-out: ERH
[7] = Solubility of the compound at pH 6.8; type: physicochemical; settings: buffer
[8] = biological target: Poly [ADP-ribose] polymerase 2 (Homo sapiens, UniProt Q9UGN5); test: Inhibition of PARP2 (unknown origin) after 60 mins by LC-MS analysis
[9] = AUC (last) in C57BL/6 mouse at 1 mg/kg, iv; type: ADME, organism-based; parameters: time 0 - last, dose 1 mg/kg, route intravenous; settings: plasma
[10] = AUC (last) in C57BL/6 mouse at 5 mg/kg, po; type: ADME, organism-based; parameters: time 0 - last, dose 5 mg/kg, route oral; settings: plasma
[11] = Volume of distribution at steady state in C57BL/6 mouse at 1 mg/kg, iv; type: ADME, organism-based; parameters: dose 1 mg/kg, route intravenous; settings: in vivo, read-out: Vdss(app)
[12] = system: Mus musculus; test: T(last) in C57BL/6 mouse at 1 mg/kg, iv; type: ADME, organism-based; parameters: dose 1 mg/kg, route intravenous; settings: in vivo
[13] = Half life in C57BL/6 mouse at 1 mg/kg, iv; type: ADME, organism-based; parameters: dose 1 mg/kg, route intravenous; settings: in vivo
[14] = Mean residence time (0 to t) in C57BL/6 mouse at 1 mg/kg, iv; type: ADME, organism-based; parameters: dose 1 mg/kg, route intravenous; settings: in vivo
[15] = Cmax in C57BL/6 mouse at 1 mg/kg, iv; type: ADME, organism-based; parameters: dose 1 mg/kg, route intravenous; settings: in vivo
[16] = Cmax in C57BL/6 mouse at 5 mg/kg, po; type: ADME, organism-based; parameters: dose 5 mg/kg, route oral; settings: in vivo
[17] = Tmax in C57BL/6 mouse at 1 mg/kg, iv; type: ADME, organism-based; parameters: dose 1 mg/kg, route intravenous; settings: in vivo
[18] = Oral bioavailability in C57BL/6 mouse at 5 mg/kg; type: ADME, organism-based; settings: in vivo
[19] = Tmax in C57BL/6 mouse at 5 mg/kg, po; type: ADME, organism-based; parameters: dose 5 mg/kg, route oral; settings: in vivo
[20] = Plasma clearance in C57BL/6 mouse at 1 mg/kg, iv; type: ADME, organism-based; parameters: dose 1 mg/kg, route intravenous
[21] = biological target: Poly [ADP-ribose] polymerase 1 (Homo sapiens, UniProt P09874)
Description: Inhibition of human PARP1 after 60 mins by LC-MS analysis

[22] = Plasma clearance in iv dosed Sprague-Dawley rat; type: ADME, organism-based
[23] = Volume of distribution in iv dosed Sprague-Dawley rat; type: ADME, organism-based; settings: in vivo

Chain of Poly [ADP-ribose] polymerase 1 (P09874 whole entry): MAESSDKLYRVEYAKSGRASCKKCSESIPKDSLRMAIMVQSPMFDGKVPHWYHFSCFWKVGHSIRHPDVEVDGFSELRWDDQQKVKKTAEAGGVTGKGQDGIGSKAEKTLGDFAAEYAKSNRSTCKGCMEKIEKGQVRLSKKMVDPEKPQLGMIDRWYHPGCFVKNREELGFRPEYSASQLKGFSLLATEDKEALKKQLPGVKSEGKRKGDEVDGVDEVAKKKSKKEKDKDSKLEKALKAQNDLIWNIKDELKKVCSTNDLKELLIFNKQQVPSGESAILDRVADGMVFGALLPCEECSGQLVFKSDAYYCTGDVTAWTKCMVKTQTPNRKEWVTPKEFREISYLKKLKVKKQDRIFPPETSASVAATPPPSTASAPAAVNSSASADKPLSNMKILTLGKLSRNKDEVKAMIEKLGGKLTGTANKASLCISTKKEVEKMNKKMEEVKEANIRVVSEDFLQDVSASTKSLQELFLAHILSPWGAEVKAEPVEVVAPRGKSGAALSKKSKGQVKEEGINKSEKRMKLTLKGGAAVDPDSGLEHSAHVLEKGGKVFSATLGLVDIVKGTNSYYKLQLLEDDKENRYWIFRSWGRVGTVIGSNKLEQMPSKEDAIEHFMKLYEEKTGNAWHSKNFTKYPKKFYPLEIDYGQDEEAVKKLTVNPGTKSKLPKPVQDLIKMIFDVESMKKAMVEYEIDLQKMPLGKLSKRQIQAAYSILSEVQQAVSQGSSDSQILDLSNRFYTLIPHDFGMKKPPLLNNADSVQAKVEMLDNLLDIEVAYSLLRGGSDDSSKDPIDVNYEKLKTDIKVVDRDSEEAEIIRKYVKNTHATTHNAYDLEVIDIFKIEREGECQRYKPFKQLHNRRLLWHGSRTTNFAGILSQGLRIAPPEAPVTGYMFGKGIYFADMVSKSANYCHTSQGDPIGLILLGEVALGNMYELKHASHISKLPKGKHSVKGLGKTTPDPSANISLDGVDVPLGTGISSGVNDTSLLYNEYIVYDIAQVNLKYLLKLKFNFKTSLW
Chain of Poly [ADP-ribose] polymerase 2 (Q9UGN5 whole entry): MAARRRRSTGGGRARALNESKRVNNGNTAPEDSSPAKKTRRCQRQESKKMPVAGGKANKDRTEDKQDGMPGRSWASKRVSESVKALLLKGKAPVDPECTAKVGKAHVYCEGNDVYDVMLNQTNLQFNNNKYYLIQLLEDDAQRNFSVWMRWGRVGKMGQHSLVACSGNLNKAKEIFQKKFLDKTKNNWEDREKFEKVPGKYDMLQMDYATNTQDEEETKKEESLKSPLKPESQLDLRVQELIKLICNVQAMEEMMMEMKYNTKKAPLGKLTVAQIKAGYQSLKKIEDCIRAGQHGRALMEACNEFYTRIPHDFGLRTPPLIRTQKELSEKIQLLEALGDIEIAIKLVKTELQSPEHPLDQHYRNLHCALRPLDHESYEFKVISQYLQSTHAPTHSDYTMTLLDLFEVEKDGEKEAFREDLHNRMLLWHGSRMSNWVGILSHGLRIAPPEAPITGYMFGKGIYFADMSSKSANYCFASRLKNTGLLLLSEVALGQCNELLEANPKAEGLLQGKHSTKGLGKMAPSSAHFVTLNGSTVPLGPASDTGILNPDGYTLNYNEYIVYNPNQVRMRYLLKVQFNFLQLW

| Structure (SMILES) | IC50 [1] [nM] | IC50 [2] [nM] | further results |
| --- | --- | --- | --- |
| O=C(NCc1ccccc1)Nc1nnc2n1CCS2 | 444 | 17600 | – |
| CC(C)CC(=O)Nc1nnc2n1CCCS2 | 980 | – | – |
| O=C(Nc1nnc2n1CCS2)C1CCC1 | 264 | 13800 | – |
| O=C(Nc1nnc2n1CCS2)c1ccccc1 | 250 | – | – |
| O=C(CCCc1ccccc1)Nc1nnc2n1CCS2 | 303 | 6460 | – |
| O=C(Cc1ccccc1)Nc1nnc2n1CCS2 | 239 | 7270 | – |
| CC(=O)Nc1nnc2n1CCCS2 | > 19000 | – | – |
| Oc1nc(-c2ccc(C(F)(F)F)cc2)nc2c1CSCC2 | – | 78 | – |
| O=C(CCn1cncn1)Nc1nnc2n1CCS2 | 1790 | > 10000 | – |
| CC(C)(C)c1ccc(C(=O)Nc2nnc3n2CCCS3)cc1 | 353 | 47800 | IC50 [8]: > 19000 nM |
| O=C(Nc1nnc2n1CCS2)C1CC1 | 2010 | > 50000 | – |
| O=C(Nc1nnc2n1CCCS2)c1ccccc1 | 2760 | – | – |
| O=C(Nc1nnc2n1CCS2)C1CCCC1 | 220 | 12800 | – |
| CC(=O)Nc1nnc2n1CCS2 | > 19000 | – | – |
| O=C(CC1CCOCC1)Nc1nnc2n1CCS2 | 202 | 10300 | – |
| O=C(CCC1CCNCC1)Nc1nnc2n1CCS2 | 2320 | > 50000 | – |

Continued, in another order:

| IC50 [1] [nM] | IC50 [2] [nM] | Structure (SMILES) | further results |
| --- | --- | --- | --- |
| 39 | 1670 | O=C(CCc1ccccc1)Nc1nnc2n1CCS2 | – |
| 88 | 5350 | O=C(CCc1ccco1)Nc1nnc2n1CCS2 | – |
| 5 | 50 | O=C(CCc1ccccc1Cl)Nc1nnc2n1CCS2 | IC50 [3]: 14 nM; IC50 [4]: 1400 nM; hepatic extraction ratio [5]: 0.9; hepatic extraction ratio [6]: 0.66; solubility [7]: 32 µM (≈ 9.88 µg/mL) |
| 134 | 12700 | O=C(CCc1ccncc1)Nc1nnc2n1CCS2 | – |
| 195 | > 10000 | Cc1n[nH]c(C)c1CCC(=O)Nc1nnc2n1CCS2 | – |
| 89 | 4520 | O=C(CCCC1CCCCC1)Nc1nnc2n1CCS2 | – |
| 33 | 1210 | Cc1cccc(C)c1CCC(=O)Nc1nnc2n1CCS2 | – |
| 8 | 169 | O=C(CCC1CCCCC1)Nc1nnc2n1CCS2 | IC50 [3]: 32 nM; IC50 [4]: > 10000 nM; hepatic extraction ratio [5]: 0.95; hepatic extraction ratio [6]: 0.2; solubility [7]: 520 µM (≈ 146 µg/mL) |
| 103 | 6450 | CC(C)CC(=O)Nc1nnc2n1CCS2 | AUC(0-t) [9]: 4.73 µM·h; AUC(0-t) [10]: 8.6 µM·h; Vd [11]: 0.1 L/kg; Tlast [12]: 1 h; half-life [13]: 6 min; MRT last [14]: 6 min; Cmax [15]: 19.1 µM; Cmax [16]: 13.7 µM; Tmax [17]: 18 min; bioavailability [18]: 36%; Tmax [19]: 18 min; IC50 [3]: 395 nM; IC50 [4]: 7670 nM; hepatic extraction ratio [5]: 0.29; hepatic extraction ratio [6]: 0.17; solubility [7]: > 1000 µM; clearance [20]: 17 mL/min/kg; IC50 [21]: 55300 nM |
| 26 | 2180 | O=C(CCC1CCCCCC1)Nc1nnc2n1CCS2 | – |
| 31 | 2390 | CC(C)(C)c1ccc(C(=O)Nc2nnc3n2CCS3)cc1 | IC50 [8]: > 19000 nM; IC50 [3]: 299 nM; IC50 [4]: > 10000 nM; hepatic extraction ratio [5]: 0.84; hepatic extraction ratio [6]: 0.36; solubility [7]: > 100 µM |
| 12 | 345 | O=C(CCc1ccccc1F)Nc1nnc2n1CCS2 | – |
| 9 | 194 | O=C(CCC1CCCC1)Nc1nnc2n1CCS2 | IC50 [3]: 28 nM; IC50 [4]: 3080 nM; hepatic extraction ratio [5]: 0.91; hepatic extraction ratio [6]: 0.68; solubility [7]: 630 µM (≈ 168 µg/mL) |
| 3 | 29 | O=C(CCc1c(Cl)cccc1Cl)Nc1nnc2n1CCS2 | IC50 [8]: > 19000 nM; clearance [22]: 45.6 mL/min/kg; Vd [23]: 1.1 L/kg; IC50 [3]: 12 nM; IC50 [4]: 377 nM; hepatic extraction ratio [5]: 0.91; hepatic extraction ratio [6]: 0.61; solubility [7]: 16 µM (≈ 5.49 µg/mL); IC50 [21]: > 19000 nM |
| 138 | 6290 | O=C(CCc1cccnc1)Nc1nnc2n1CCS2 | – |
| 1 | 20 | O=C(CCc1cccc(Cl)c1Cl)Nc1nnc2n1CCS2 | IC50 [8]: 3800 nM; IC50 [3]: 7 nM; IC50 [4]: > 10000 nM; hepatic extraction ratio [5]: 0.92; IC50 [21]: > 19000 nM |
| 20 | 429 | O=C(CC1CCCCC1)Nc1nnc2n1CCS2 | – |
| 5 | 116 | O=C(CCc1ccc(Cl)cc1Cl)Nc1nnc2n1CCS2 | IC50 [8]: 4700 nM; IC50 [3]: 24 nM; IC50 [4]: > 10000 nM; hepatic extraction ratio [5]: 0.91; IC50 [21]: > 19000 nM |
| 70 | 1540 | O=C(Nc1nnc2n1CCS2)C1CCCCC1 | – |
